Experimental data from US20160367623A1, “AGONISTS OF GUANYLATE CYCLASE USEFUL FOR THE TREATMENT OF GASTROINTESTINAL DISORDERS, INFLAMMATION, CANCER AND OTHER DISORDERS” (priority 2015, published 2016).
Bridge positions count the residues as written; N and C are the ends. Ends that are not written are not given here.

Tested on: patients with chronic idiopathic constipation (CIC)
Assay: Second phase 3 CIC trial: change from baseline in CSBMs/week
Type: in vivo, human
Conditions: MRA
[1] = Week 8, 6 mg, ITT Population-Excluding Duplicate Patients
[2] = Week 9, 3 mg, ITT Population-Excluding Duplicate Patients
[3] = Week 9, 6 mg, ITT Population-Excluding Duplicate Patients
[4] = Week 10, 3 mg, ITT Population-Excluding Duplicate Patients
[5] = Week 10, 6 mg, ITT Population-Excluding Duplicate Patients
[6] = Week 11, 3 mg, ITT Population-Excluding Duplicate Patients
[7] = Week 11, 6 mg, ITT Population-Excluding Duplicate Patients
[8] = Week 12, 3 mg, ITT Population-Excluding Duplicate Patients
[9] = Week 12, 6 mg, ITT Population-Excluding Duplicate Patients
[10] = overall average estimate across the 12-week treatment period, 3 mg, ITT Population
[11] = overall average estimate across the 12-week treatment period, 3 mg, ITT Population-Excluding Duplicate Patients
[12] = overall average estimate across the 12-week treatment period, 6 mg, ITT Population
[13] = overall average estimate across the 12-week treatment period, 6 mg, ITT Population-Excluding Duplicate Patients

## Asn^1-Asp^2-Glu^3-Cys^4-Glu^5-Leu^6-Cys^7-Val^8-Asn^9-Val^10-Ala^11-Cys^12-Thr^13-Gly^14-Cys^15-Leu^16 (NDECELCVNVACTGCL; disulfide 4-12, 7-15) [Plecanatide, uroguanylin analogue, guanylate cyclase-C agonist; (C4:C12, C7:C15) bicycle peptide]
Week 8, 6 mg, ITT Population
  Change from Baseline in CSBMs, Mean (SD): 2.36 (3.243) CSBMs/week
[1]
  Change from Baseline in CSBMs, Difference from Placebo: 0.85 CSBMs/week
  Change from Baseline in CSBMs, LS Mean (SE): 2.35 (0.155) CSBMs/week
  Change from Baseline in CSBMs, Mean (SD): 2.37 (3.250) CSBMs/week
Week 8, Active Combined, ITT Population-Excluding Duplicate Patients
  Change from Baseline in CSBMs, Mean (SD): 2.52 (3.510) CSBMs/week
Week 8, Active Combined, ITT Population
  Change from Baseline in CSBMs, Mean (SD): 2.51 (3.498) CSBMs/week
Week 9, 3 mg, ITT Population
  Change from Baseline in CSBMs, Difference from Placebo: 0.94 CSBMs/week
  Change from Baseline in CSBMs, LS Mean (SE): 2.49 (0.156) CSBMs/week
  Change from Baseline in CSBMs, Mean (SD): 2.59 (3.459) CSBMs/week
[2]
  Change from Baseline in CSBMs, Difference from Placebo: 0.95 CSBMs/week
  Change from Baseline in CSBMs, LS Mean (SE): 2.53 (0.159) CSBMs/week
  Change from Baseline in CSBMs, Mean (SD): 2.62 (3.479) CSBMs/week
Week 9, 6 mg, ITT Population
  Change from Baseline in CSBMs, Difference from Placebo: 0.81 CSBMs/week
  Change from Baseline in CSBMs, LS Mean (SE): 2.37 (0.154) CSBMs/week
  Change from Baseline in CSBMs, Mean (SD): 2.38 (3.176) CSBMs/week
[3]
  Change from Baseline in CSBMs, Difference from Placebo: 0.81 CSBMs/week
  Change from Baseline in CSBMs, LS Mean (SE): 2.39 (0.156) CSBMs/week
  Change from Baseline in CSBMs, Mean (SD): 2.39 (3.184) CSBMs/week
Week 9, Active Combined, ITT Population-Excluding Duplicate Patients
  Change from Baseline in CSBMs, Mean (SD): 2.50 (3.329) CSBMs/week
Week 9, Active Combined, ITT Population
  Change from Baseline in CSBMs, Mean (SD): 2.48 (3.316) CSBMs/week
Week 10, 3 mg, ITT Population
  Change from Baseline in CSBMs, Difference from Placebo: 0.85 CSBMs/week
  Change from Baseline in CSBMs, LS Mean (SE): 2.49 (0.156) CSBMs/week
  Change from Baseline in CSBMs, Mean (SD): 2.63 (3.617) CSBMs/week
[4]
  Change from Baseline in CSBMs, Difference from Placebo: 0.87 CSBMs/week
  Change from Baseline in CSBMs, LS Mean (SE): 2.52 (0.159) CSBMs/week
  Change from Baseline in CSBMs, Mean (SD): 2.65 (3.637) CSBMs/week
Week 10, 6 mg, ITT Population
  Change from Baseline in CSBMs, Difference from Placebo: 0.86 CSBMs/week
  Change from Baseline in CSBMs, LS Mean (SE): 2.50 (0.154) CSBMs/week
  Change from Baseline in CSBMs, Mean (SD): 2.51 (3.288) CSBMs/week
[5]
  Change from Baseline in CSBMs, Difference from Placebo: 0.87 CSBMs/week
  Change from Baseline in CSBMs, LS Mean (SE): 2.52 (0.156) CSBMs/week
  Change from Baseline in CSBMs, Mean (SD): 2.51 (3.288) CSBMs/week
Week 10, Active Combined, ITT Population-Excluding Duplicate Patients
  Change from Baseline in CSBMs, Mean (SD): 2.58 (3.458) CSBMs/week
Week 10, Active Combined, ITT Population
  Change from Baseline in CSBMs, Mean (SD): 2.57 (3.449) CSBMs/week
Week 11, 3 mg, ITT Population
  Change from Baseline in CSBMs, Difference from Placebo: 0.96 CSBMs/week
  Change from Baseline in CSBMs, LS Mean (SE): 2.56 (0.157) CSBMs/week
  Change from Baseline in CSBMs, Mean (SD): 2.71 (3.710) CSBMs/week
[6]
  Change from Baseline in CSBMs, Difference from Placebo: 0.99 CSBMs/week
  Change from Baseline in CSBMs, LS Mean (SE): 2.61 (0.159) CSBMs/week
  Change from Baseline in CSBMs, Mean (SD): 2.75 (3.728) CSBMs/week
Week 11, 6 mg, ITT Population
  Change from Baseline in CSBMs, Difference from Placebo: 0.80 CSBMs/week
  Change from Baseline in CSBMs, LS Mean (SE): 2.40 (0.155) CSBMs/week
  Change from Baseline in CSBMs, Mean (SD): 2.44 (3.276) CSBMs/week
[7]
  Change from Baseline in CSBMs, Difference from Placebo: 0.79 CSBMs/week
  Change from Baseline in CSBMs, LS Mean (SE): 2.41 (0.156) CSBMs/week
  Change from Baseline in CSBMs, Mean (SD): 2.43 (3.266) CSBMs/week
Week 11, Active Combined, ITT Population-Excluding Duplicate Patients
  Change from Baseline in CSBMs, Mean (SD): 2.58 (3.498) CSBMs/week
Week 11, Active Combined, ITT Population
  Change from Baseline in CSBMs, Mean (SD): 2.57 (3.493) CSBMs/week
Week 12, 3 mg, ITT Population
  Change from Baseline in CSBMs, Difference from Placebo: 0.94 CSBMs/week
  Change from Baseline in CSBMs, LS Mean (SE): 2.60 (0.157) CSBMs/week
  Change from Baseline in CSBMs, Mean (SD): 2.76 (3.785) CSBMs/week
[8]
  Change from Baseline in CSBMs, Difference from Placebo: 0.97 CSBMs/week
  Change from Baseline in CSBMs, LS Mean (SE): 2.64 (0.159) CSBMs/week
  Change from Baseline in CSBMs, Mean (SD): 2.78 (3.803) CSBMs/week
Week 12, 6 mg, ITT Population
  Change from Baseline in CSBMs, Difference from Placebo: 0.86 CSBMs/week
  Change from Baseline in CSBMs, LS Mean (SE): 2.51 (0.155) CSBMs/week
  Change from Baseline in CSBMs, Mean (SD): 2.57 (3.409) CSBMs/week
[9]
  Change from Baseline in CSBMs, Difference from Placebo: 0.84 CSBMs/week
  Change from Baseline in CSBMs, LS Mean (SE): 2.51 (0.157) CSBMs/week
  Change from Baseline in CSBMs, Mean (SD): 2.56 (3.366) CSBMs/week
Week 12, Active Combined, ITT Population-Excluding Duplicate Patients
  Change from Baseline in CSBMs, Mean (SD): 2.67 (3.585) CSBMs/week
Week 12, Active Combined, ITT Population
  Change from Baseline in CSBMs, Mean (SD): 2.66 (3.596) CSBMs/week
[10]
  Change from Baseline in CSBMs, Difference from Placebo: 0.90 CSBMs/week
  Change from Baseline in CSBMs, LS Mean (SE): 2.27 (0.135) CSBMs/week
[11]
  Change from Baseline in CSBMs, Difference from Placebo: 0.91 CSBMs/week
  Change from Baseline in CSBMs, LS Mean (SE): 2.30 (0.137) CSBMs/week
[12]
  Change from Baseline in CSBMs, Difference from Placebo: 0.79 CSBMs/week
  Change from Baseline in CSBMs, LS Mean (SE): 2.16 (0.133) CSBMs/week
[13]
  Change from Baseline in CSBMs, Difference from Placebo: 0.79 CSBMs/week
  Change from Baseline in CSBMs, LS Mean (SE): 2.18 (0.135) CSBMs/week
